These results are taken from patent US4328214A, “Cyclopeptides and pharmaceutical preparations thereof and also processes for their manufacture” (Ciba-Geigy Corporation, priority 1979, dated 1982).

The subject of the experiment is insulin and glucagon release. In words: determination of insulin and glucagon release using the isolated perfused pancreas of a rat. The note with it: multiple of the reference's inhibitory effect.

As for “[D-Trp^8 ; β-(1-naphthyl)-Gaba^12 ]-cyclosomatostatin(5-12)-octapeptide [formula ID diastereoisomeric mixture]”, the “inhibitory effect relative to [D-Trp^8 ; Gaba^12 ]-cyclosomatostatin(5-12)-octapeptide (formula M, p=1)” value is recorded as “approximately 10 times”.
